In PMC2875304 (Experimental parasitology, 2010):
Where two headings read alike, the source gives them in different places. No end group written: not given here.

Tests used:
[1] = tested on: Trypanosoma cruzi (M/HOM/AR/74/CA-I CL72); format: cell-based; conditions: for IC50: 50% reduction in untreated-culture growth after 96 hours, triplicate wells, three independent trials
Rhodococcus rhodnii = assay: Minimal Inhibitory Concentration; format: cell-based; conditions: single AMP treatment, result in words
E. coli DH5α = assay: Minimal Inhibitory Concentration; format: cell-based, Escherichia coli; conditions: single AMP treatment, result in words

GNNRPVYIPQPRPPHPRL-NH2 [Apidaecin, Apidaecin 14]
IC50 ([1]; read-out: IC50A, peptide A alone): 0.7 µM

KWKLFKKIEKVGQNIRDGIIKAGPAVAVVGQATQIAK-NH2 [Cecropin A]
Growth inhibition of T. cruzi ([1]; single peptide, 96 hour treatment, 0 to 10 μM concentration range): ≤ 50%

GIGKFLHSAKKFGKAFVGEIMNS [Magainin, Magainin II]
IC50 ([1]; read-out: IC50B, peptide B alone): 10 µM

QGYQGGYTRPFPRPPYGGGYHPVPVCTSCHRLSPLQARACCRQLGRCCDAKQTYG [Penaeidin, penaeidin]
Effect on R. rhodnii in MIC assay (Rhodococcus rhodnii): did not have an effect | Effect on E. coli in MIC assay (E. coli DH5α): did not have an effect
